{"source": "patent US20100317848A1", "about": "“PROCESS FOR THE SYNTHESIS OF DERIVATIVES OF 3-AMINO-TETRAHYDROFURAN-3-CARBOXYLIC ACID AND USE THEREOF AS MEDICAMENTS” (BOEHRINGER INGELHEIM INTERNATIONAL GMBH, priority 2006, published 2010)", "key": {"human factor Xa": {"molecular_target": "T1, human factor Xa (Homo sapiens, UniProt P00742)", "T1 construct": "released from the colourless chromogenic substrate by human factor Xa; purchased Calbiochem", "T1 sequence (P00742 235-488 limits assumed)": "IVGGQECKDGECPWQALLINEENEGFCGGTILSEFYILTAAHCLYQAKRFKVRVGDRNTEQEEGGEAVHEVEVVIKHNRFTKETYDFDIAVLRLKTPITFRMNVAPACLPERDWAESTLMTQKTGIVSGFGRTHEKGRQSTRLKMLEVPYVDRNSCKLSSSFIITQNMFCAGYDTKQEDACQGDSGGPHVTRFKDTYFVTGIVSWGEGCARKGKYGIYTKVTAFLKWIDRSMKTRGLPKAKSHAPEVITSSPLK", "T1 sequence (P00742 41-179 partner limits assumed)": "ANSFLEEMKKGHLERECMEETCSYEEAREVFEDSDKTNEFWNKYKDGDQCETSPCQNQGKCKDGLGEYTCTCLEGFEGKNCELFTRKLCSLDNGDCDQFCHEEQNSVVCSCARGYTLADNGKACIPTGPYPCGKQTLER", "test": "Inhibition of factor Xa, enzyme-kinetic measurement with chromogenic substrate", "type": "biochemical", "conditions": "FXa assay; (S)-form versus (R)-form at the tetrahydrofuran carbon", "method": "The compounds listed in the Experimental Section were investigated for their effect on the inhibition of factor Xa as follows:\nEnzyme-kinetic measurement with chromogenic substrate. The quantity of p-nitroaniline (pNA) released from the colourless chromogenic substrate by human factor Xa is determined photometrically at 405 nm. It is proportional to the activity of the enzyme used. The inhibition of the enzyme activity by the test substance (in relation to the solvent control) is determined at various concentrations of test substance and from this the IC50 is calculated, as the concentration which inhibits the factor Xa used by 50%.\nTris(hydroxymethyl)-aminomethane buffer (100 mMol) and sodium chloride (150 mMol), pH 8.0 plus 1 mg/ml Human Albumin Fraction V, protease-free Factor Xa (Calbiochem), spec. activity: 217 IU/mg, final concentration: 7 IU/ml for each reaction mixture Substrate S 2765 (Chromogenix), final concentration: 0.3 mM/l (1 KM) for each reaction mixture Test substance: final concentration 100, 30, 10, 3, 1, 0.3, 0.1, 0.03, 0.01, 0.003, 0.001 μMol/l\n10 μl of a 23.5-times concentrated starting solution of the test substance or solvent (control), 175 μl of TRIS/HSA buffer and 25 μl of a 65.8 U/L Factor Xa working solution are incubated for 10 minutes at 37° C. After the addition of 25 μl of S 2765 working solution (2.82 mMol/l) the sample is measured in a photometer (SpectraMax 250) at 405 nm for 600 seconds at 37° C.\n1. Determining the maximum increase (deltaOD/minutes) over 21 measuring points. 2. Determining the % inhibition based on the solvent control. 3. Plotting a dosage/activity curve (% inhibition vs substance concentration). 4. Determining the IC50 by interpolating the X-value (substance concentration) of the dosage/activity curve at Y=50% inhibition."}, "[1]": {"test": "Intrinsic dissolution rate in aqueous media, rotating disc method", "type": "physicochemical", "conditions": "for dissolution rate: 37° C., 200 rpm", "method": "The intrinsic dissolution rate was determined in aqueous media covering a range of pH 1.1-7.4 using the rotating disc method which maintains a constant surface area. 5 mg of drug substance was compressed to form a disc at 356.1 N for 60 s. These discs were mounted to specially designed sample holders which fit into a Sotax dissolution tester. The dissolution media (37° C.) were stirred at 200 rpm. Samples were automatically withdrawn every second minute from the dissolution vessel and assayed via UV spectrophotometry. The intrinsic dissolution rate expressed in μg/cm^2/min was calculated using the slope of the concentration versus time plot and from the linear portion of the slope of the dissolution curve, volume of dissolution medium (35 ml) and area (diameter: 2 mm) of the exposed disk."}, "[2]": {"test": "Solubility in different aqueous media", "type": "physicochemical", "conditions": "for solubility: aqueous medium"}}, "note": "“Also recorded” adds a separate entry of the source.", "data": [{"smiles": "CN1CCc2ccc(NC(=O)[C@]3(NC(=O)c4ccc(Br)s4)CCOC3)cc2CC1", "note": "[(S)-3-[(5-bromo-thiophen-2-yl)-carbonylamino]-N-(3-methyl-2,3,4,5-tetrahydro-1H-benzo[d]azepin-7-yl)-tetrahydrofuran-3-carboxylic acid amide]", "values": [{"measurement": "IC50 at an approximately x-fold lower plasma concentration compared to the (R)-enantiomer / corresponding (3R)-diastereoisomer", "setting": "human factor Xa", "result": "approximately 9 fold"}]}, {"smiles": "C[C@@H]1CN(C)CCc2ccc(NC(=O)[C@]3(NC(=O)c4ccc(Cl)s4)CCOC3)cc21", "note": "[(3S)-3-[(5-chloro-thiophen-2-yl)-carbonylamino]-N-((5S)-3,5-dimethyl-2,3,4,5-tetrahydro-1H-benzo[d]azepin-7-yl)-tetrahydrofuran-3-carboxylic acid amide]", "values": [{"measurement": "IC50 at an approximately x-fold lower plasma concentration compared to the (R)-enantiomer / corresponding (3R)-diastereoisomer", "setting": "human factor Xa", "result": "approximately 7 fold"}]}, {"smiles": "C[C@H]1CN(C)CCc2ccc(NC(=O)[C@]3(NC(=O)c4ccc(Cl)s4)CCOC3)cc21", "note": "[(3S)-3-[(5-chloro-thiophen-2-yl)-carbonylamino]-N-((5R)-3,5-dimethyl-2,3,4,5-tetrahydro-1H-benzo[d]azepin-7-yl)-tetrahydrofuran-3-carboxylic acid amide]", "values": [{"measurement": "IC50 at an approximately x-fold lower plasma concentration compared to the (R)-enantiomer / corresponding (3R)-diastereoisomer", "setting": "human factor Xa", "result": "approximately 10 fold"}]}, {"smiles": "Cc1cc(NC(=O)[C@]2(NC(=O)c3ccc(Cl)s3)CCOC2)ccc1N1CCOCC/C1=N\\C#N", "note": "[(S)-5-chloro-thiophene-2-carboxylic acid-N-{3-[3-methyl-4-(5-cyanimin-[1.4]oxazepan-4-yl)-phenylcarbamoyl]-tetrahydrofuran-3-yl}-amide]", "values": [{"measurement": "IC50 at an approximately x-fold lower plasma concentration compared to the (R)-enantiomer / corresponding (3R)-diastereoisomer", "setting": "human factor Xa", "result": "approximately 17 fold"}]}, {"smiles": "CN1CCc2ccc(NC(=O)[C@]3(NC(=O)c4ccc(Cl)s4)CCOC3)cc2CC1", "note": "[(S)-3-[(5-chloro-thiophen-2-yl)-carbonylamino]-N-(3-methyl-2,3,4,5-tetrahydro-1H-benzo[d]azepin-7-yl)-tetrahydrofuran-3-carboxylic acid amide]", "values": [{"measurement": "dissolution rate in words", "setting": "[1]; pH 7.4", "result": "acceptable dissolution rates"}, {"measurement": "dissolution rate", "setting": "[1]; pH of aqueous medium 1.1", "result": 8220, "unit": "μg/cm^2/min"}, {"measurement": "dissolution rate", "setting": "[1]; pH of aqueous medium 2.3", "result": 4520, "unit": "μg/cm^2/min"}, {"measurement": "dissolution rate", "setting": "[1]; pH of aqueous medium 3.2", "result": 4000, "unit": "μg/cm^2/min"}, {"measurement": "dissolution rate", "setting": "[1]; pH of aqueous medium 4.1", "result": 3110, "unit": "μg/cm^2/min"}, {"measurement": "dissolution rate", "setting": "[1]; pH of aqueous medium 5.1", "result": 4015, "unit": "μg/cm^2/min"}, {"measurement": "dissolution rate", "setting": "[1]; pH of aqueous medium 6.0", "result": 4140, "unit": "μg/cm^2/min"}, {"measurement": "dissolution rate", "setting": "[1]; pH of aqueous medium 7.4", "result": 240, "unit": "μg/cm^2/min"}, {"measurement": "dissolution rate in words", "setting": "[1]; up to pH 6.0", "result": "very fast dissolution rates"}, {"measurement": "solubility in words", "setting": "[2]; acidic media", "result": "excellent solubility; also recorded: high solubility"}, {"measurement": "solubility", "setting": "[2]; aqueous buffer, medium: 0.01 N NaOH", "result": 46, "unit": "µg/mL"}, {"measurement": "solubility", "setting": "[2]; aqueous buffer, medium: pH 2.2", "result": "> 10000", "unit": "µg/mL"}, {"measurement": "solubility", "setting": "[2]; aqueous buffer, medium: pH 4.0", "result": "> 10000", "unit": "µg/mL"}, {"measurement": "solubility", "setting": "[2]; aqueous buffer, medium: pH 6.0", "result": "> 10000", "unit": "µg/mL"}, {"measurement": "solubility", "setting": "[2]; aqueous buffer, medium: pH 7.4", "result": 1800, "unit": "µg/mL"}, {"measurement": "solubility", "setting": "[2]; simulated gastric fluid, medium: 0.1 N HCl", "result": "> 10000", "unit": "µg/mL"}, {"measurement": "solubility", "setting": "[2]; medium: water", "result": 280, "unit": "µg/mL"}, {"measurement": "pH of the saturated solution", "setting": "[2]; medium: 0.01 N NaOH", "result": 11.8}, {"measurement": "pH of the saturated solution", "setting": "[2]; medium: 0.1 N HCl", "result": 1.0}, {"measurement": "pH of the saturated solution", "setting": "[2]; medium: pH 2.2", "result": 2.4}, {"measurement": "pH of the saturated solution", "setting": "[2]; medium: pH 4.0", "result": 4.3}, {"measurement": "pH of the saturated solution", "setting": "[2]; medium: pH 6.0", "result": 6.3}, {"measurement": "pH of the saturated solution", "setting": "[2]; medium: pH 7.4", "result": 7.5}, {"measurement": "pH of the saturated solution", "setting": "[2]; medium: water", "result": 8.6}, {"measurement": "solubility in words", "setting": "[2]; neutral and basic media", "result": "reduced solubility"}, {"measurement": "IC50 at an approximately x-fold lower plasma concentration compared to the (R)-enantiomer / corresponding (3R)-diastereoisomer", "setting": "human factor Xa", "result": "approximately 8 fold"}]}, {"smiles": "N#C/N=C1\\CCOCCN1c1ccc(NC(=O)[C@]2(NC(=O)c3ccc(Cl)s3)CCOC2)cc1", "note": "[(S)-5-chloro-thiophene-2-carboxylic acid-N-{3-[4-(5-cyanimin-[1.4]oxazepan-4-yl)-phenylcarbamoyl]-tetrahydrofuran-3-yl}-amide]", "values": [{"measurement": "IC50 at an approximately x-fold lower plasma concentration compared to the (R)-enantiomer / corresponding (3R)-diastereoisomer", "setting": "human factor Xa", "result": "approximately 15 fold"}]}, {"smiles": "Cc1cc(NC(=O)[C@]2(NC(=O)c3ccc(Br)s3)CCOC2)ccc1N1CCOCCC1=O", "note": "[(S)-5-bromo-thiophene-2-carboxylic acid-N-{3-[3-methyl-4-(5-oxo-[1,4]oxazepan-4-yl)-phenylcarbamoyl]-tetrahydrofuran-3-yl}-amide]", "values": [{"measurement": "IC50 at an approximately x-fold lower plasma concentration compared to the (R)-enantiomer / corresponding (3R)-diastereoisomer", "setting": "human factor Xa", "result": "approximately 16 fold"}]}]}
